The source made the active and inactive calls.
Experiments:
[1] = molecular target: T1, Heat shock factor protein 1 (Mus musculus, UniProt P38532); assay: enhancement of HSF1-driven luciferase signal – cell-based, NIH3T3, luminescence, dose retest, confirmation (AID 435004); format: functional;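 note: stress induced by proteasome inhibitor MG132 added 30 min after compound; luciferase reporter driven by HSF1 response element in NIH3T3 cells; actives raise luminescence as potentiators of the MG132 stress response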
T1 sequence (P38532 whole entry): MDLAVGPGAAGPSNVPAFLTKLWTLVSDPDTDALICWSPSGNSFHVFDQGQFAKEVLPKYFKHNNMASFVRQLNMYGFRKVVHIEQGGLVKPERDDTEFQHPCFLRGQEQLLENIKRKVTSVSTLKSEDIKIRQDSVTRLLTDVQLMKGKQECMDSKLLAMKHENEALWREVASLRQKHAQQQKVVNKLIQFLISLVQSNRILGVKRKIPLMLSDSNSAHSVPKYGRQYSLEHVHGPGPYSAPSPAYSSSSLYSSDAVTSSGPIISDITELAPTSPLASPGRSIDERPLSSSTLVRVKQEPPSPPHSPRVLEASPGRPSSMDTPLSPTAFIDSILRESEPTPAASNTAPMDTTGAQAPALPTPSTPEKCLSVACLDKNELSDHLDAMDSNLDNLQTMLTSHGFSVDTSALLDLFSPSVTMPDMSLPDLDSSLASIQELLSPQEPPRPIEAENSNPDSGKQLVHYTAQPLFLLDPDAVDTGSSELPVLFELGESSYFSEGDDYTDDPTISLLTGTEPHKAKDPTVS

[2] = non-specific 3'UTR reporter inhibition in Clone20-Shn3RL – cell-based, Renilla luciferase, cherry-picked, counter-screen for Shn3 inhibitor project, dose response (AID 624133); format: functional
Fatty acid synthase [3] = molecular target: T2, Fatty acid synthase (Homo sapiens, UniProt P49327); assay: inhibition of human FAS-TE enzyme activity – biochemical, endpoint fluorescence intensity, uHTS hits, dose response (AID 624327); format: functional;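 note: fluorescence from hydrolysis of an O-methyl fluorescein acyl ester substrate by the enzyme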
T2 sequence (P49327 whole entry): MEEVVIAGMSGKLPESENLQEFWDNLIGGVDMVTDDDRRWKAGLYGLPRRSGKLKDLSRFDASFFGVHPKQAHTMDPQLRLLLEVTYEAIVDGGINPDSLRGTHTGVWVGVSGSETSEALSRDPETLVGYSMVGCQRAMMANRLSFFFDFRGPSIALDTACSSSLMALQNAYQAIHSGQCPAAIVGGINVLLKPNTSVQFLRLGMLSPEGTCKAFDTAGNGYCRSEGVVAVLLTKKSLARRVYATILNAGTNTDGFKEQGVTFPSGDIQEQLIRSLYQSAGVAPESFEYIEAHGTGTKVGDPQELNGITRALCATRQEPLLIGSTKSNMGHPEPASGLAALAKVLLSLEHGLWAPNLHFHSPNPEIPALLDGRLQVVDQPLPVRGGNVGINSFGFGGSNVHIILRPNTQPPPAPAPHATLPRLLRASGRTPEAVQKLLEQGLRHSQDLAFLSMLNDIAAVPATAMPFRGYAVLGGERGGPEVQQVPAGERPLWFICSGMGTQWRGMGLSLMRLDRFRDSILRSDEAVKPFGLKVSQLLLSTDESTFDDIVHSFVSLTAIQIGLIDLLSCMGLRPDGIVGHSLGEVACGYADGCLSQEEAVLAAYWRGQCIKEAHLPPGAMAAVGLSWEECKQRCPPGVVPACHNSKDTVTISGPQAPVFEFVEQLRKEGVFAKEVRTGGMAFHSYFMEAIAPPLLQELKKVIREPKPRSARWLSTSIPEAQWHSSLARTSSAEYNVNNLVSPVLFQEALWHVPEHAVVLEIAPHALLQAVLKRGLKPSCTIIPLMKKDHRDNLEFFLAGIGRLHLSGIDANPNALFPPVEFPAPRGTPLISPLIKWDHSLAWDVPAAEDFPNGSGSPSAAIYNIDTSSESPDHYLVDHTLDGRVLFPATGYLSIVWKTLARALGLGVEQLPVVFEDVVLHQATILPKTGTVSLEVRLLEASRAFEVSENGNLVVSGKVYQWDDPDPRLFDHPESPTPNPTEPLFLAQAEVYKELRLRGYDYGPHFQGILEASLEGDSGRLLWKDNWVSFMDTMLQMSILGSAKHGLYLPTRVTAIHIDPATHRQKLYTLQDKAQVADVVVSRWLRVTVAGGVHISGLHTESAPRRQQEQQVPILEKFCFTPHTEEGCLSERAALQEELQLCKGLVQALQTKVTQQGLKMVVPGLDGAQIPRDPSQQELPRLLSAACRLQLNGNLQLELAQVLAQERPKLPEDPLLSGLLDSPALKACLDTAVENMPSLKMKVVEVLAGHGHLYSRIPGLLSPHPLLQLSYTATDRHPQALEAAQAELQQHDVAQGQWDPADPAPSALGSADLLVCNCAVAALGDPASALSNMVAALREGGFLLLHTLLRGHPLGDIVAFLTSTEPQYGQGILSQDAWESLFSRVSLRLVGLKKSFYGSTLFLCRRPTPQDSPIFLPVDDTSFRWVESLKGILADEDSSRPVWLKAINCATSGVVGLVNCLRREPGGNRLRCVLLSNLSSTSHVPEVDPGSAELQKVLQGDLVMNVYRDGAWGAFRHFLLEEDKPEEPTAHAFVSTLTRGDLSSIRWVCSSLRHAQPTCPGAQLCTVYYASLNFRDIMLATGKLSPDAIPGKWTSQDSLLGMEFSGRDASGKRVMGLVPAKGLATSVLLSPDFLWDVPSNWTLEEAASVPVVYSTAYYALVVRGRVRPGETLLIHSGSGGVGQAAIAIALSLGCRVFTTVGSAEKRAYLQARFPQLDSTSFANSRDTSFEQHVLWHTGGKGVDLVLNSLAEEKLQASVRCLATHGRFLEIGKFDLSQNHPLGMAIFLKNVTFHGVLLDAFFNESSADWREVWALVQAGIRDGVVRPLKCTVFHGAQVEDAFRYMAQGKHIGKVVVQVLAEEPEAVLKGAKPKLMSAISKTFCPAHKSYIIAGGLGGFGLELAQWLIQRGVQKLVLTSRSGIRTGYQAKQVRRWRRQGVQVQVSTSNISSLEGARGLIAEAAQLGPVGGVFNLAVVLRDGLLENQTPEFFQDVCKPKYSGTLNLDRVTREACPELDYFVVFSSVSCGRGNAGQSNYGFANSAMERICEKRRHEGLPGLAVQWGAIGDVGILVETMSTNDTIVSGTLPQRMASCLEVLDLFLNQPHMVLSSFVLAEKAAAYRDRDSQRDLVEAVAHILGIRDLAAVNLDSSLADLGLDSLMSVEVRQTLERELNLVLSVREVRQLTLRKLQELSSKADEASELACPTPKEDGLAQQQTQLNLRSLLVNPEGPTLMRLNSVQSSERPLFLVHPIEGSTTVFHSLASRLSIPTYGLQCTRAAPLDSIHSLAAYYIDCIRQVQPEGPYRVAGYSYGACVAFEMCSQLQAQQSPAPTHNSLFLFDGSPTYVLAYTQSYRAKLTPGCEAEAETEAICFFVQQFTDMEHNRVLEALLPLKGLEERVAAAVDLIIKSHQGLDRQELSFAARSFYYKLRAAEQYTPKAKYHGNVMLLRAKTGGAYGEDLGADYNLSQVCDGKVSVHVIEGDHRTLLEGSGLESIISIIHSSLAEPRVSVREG

Fatty acid synthase [4] = molecular target: T2, Fatty acid synthase; assay: inhibition of human FAS-TE enzyme activity – biochemical, kinetic fluorescence intensity, dose response (AID 624326); format: functional;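 note: rate of fluorescence rise from hydrolysis of a fluorogenic O-methyl fluorescein ester substrate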
[5] = loss of viability in HepG2 cells – cell-based, CellTiter-Glo, cherry-picked, cytotoxicity control for Shn3 inhibitor project, dose response (AID 624134); format: functional
[6] = reduction of Shn3 3'UTR-driven luciferase in osteoblasts – cell-based, Clone20 osteoblasts, firefly luciferase, cherry-picked, dose response (AID 624132); format: functional;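 note: firefly luciferase luminescence from reporter carrying the Shn3 3'UTR in osteoblasts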
Protein skinhead-1 = molecular target: T3, Protein skinhead-1 (Caenorhabditis elegans, UniProt P34707); format: functional
T3 sequence (P34707 whole entry): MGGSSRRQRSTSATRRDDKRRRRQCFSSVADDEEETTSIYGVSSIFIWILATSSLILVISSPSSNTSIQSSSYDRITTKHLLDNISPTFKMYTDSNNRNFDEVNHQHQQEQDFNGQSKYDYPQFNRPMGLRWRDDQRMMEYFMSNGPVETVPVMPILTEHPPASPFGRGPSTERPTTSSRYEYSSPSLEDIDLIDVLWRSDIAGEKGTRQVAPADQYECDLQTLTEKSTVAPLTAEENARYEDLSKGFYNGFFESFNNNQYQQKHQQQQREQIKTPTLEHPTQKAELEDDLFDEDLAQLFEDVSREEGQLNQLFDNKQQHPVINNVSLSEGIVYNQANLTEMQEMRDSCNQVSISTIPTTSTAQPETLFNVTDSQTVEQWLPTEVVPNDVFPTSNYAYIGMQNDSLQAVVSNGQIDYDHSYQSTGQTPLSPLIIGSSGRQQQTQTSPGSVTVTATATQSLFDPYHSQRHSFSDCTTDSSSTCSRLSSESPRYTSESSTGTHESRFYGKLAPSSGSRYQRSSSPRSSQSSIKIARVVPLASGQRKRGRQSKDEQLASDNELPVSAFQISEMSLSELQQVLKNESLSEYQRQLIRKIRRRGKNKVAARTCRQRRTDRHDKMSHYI

Protein RecA = molecular target: T4, Protein RecA (Mycobacterium tuberculosis, UniProt P9WHJ3); assay: Fluorescence Cell-Free Homogeneous Dose Retest to Identify Inhibitors of RecA-Intein Splicing Activity. [Related pubchem assays (depositor defined):AID2097, AID2223, AID489010, AID492950]; format: functional
T4 sequence (P9WHJ3 whole entry): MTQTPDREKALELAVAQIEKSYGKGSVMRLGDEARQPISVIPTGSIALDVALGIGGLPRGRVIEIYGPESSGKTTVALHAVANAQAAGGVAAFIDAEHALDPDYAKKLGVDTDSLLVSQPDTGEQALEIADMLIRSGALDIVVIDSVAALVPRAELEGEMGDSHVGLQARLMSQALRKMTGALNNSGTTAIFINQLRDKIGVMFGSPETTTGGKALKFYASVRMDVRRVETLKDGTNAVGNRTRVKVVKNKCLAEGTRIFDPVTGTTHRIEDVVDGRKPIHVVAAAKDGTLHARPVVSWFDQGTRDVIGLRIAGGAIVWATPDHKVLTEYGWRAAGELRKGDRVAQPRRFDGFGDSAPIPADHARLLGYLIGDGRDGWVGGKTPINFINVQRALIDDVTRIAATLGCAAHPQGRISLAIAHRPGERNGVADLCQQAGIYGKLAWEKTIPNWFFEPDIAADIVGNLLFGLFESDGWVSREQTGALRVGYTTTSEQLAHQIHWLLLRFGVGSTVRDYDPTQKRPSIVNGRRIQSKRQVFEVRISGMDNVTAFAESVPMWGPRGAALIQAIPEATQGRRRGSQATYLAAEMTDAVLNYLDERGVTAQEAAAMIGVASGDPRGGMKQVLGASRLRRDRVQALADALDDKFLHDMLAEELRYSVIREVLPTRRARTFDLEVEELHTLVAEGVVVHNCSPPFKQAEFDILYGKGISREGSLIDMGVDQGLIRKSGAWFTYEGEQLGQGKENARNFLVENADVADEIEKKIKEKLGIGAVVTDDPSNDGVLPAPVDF

[7] = molecular target: T5, Replicative DNA helicase DnaB (Mycobacterium tuberculosis, UniProt P9WMR3); assay: DnaB intein splicing inhibitors, dose response, biochemical, cell-free fluorescence (AID 449749); format: functional
T5 sequence (P9WMR3 whole entry): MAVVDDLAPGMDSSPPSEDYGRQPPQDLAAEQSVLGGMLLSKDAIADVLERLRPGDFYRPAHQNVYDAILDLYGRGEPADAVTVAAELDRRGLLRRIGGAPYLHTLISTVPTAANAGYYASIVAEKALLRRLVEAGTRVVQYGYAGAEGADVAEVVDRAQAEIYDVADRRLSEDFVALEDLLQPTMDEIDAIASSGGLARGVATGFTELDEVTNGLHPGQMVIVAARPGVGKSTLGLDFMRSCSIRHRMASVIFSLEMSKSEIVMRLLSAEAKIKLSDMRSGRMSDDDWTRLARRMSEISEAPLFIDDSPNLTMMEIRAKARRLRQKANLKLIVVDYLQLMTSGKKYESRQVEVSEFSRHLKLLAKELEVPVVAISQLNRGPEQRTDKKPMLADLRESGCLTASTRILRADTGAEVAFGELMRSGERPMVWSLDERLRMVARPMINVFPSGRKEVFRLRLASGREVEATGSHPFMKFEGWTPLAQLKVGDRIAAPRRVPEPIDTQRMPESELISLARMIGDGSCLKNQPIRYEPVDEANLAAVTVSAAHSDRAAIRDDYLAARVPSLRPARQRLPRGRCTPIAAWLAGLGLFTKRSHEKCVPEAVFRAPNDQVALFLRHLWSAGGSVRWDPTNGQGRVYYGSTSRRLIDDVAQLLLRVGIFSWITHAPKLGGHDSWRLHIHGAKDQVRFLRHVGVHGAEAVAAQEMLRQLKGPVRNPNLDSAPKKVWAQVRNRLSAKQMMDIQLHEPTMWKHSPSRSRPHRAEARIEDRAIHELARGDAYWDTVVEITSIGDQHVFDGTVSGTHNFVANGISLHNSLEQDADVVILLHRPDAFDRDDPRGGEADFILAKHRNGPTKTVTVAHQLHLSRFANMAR

[8] = viability of HCT116 lacking mutant beta-catenin – cell-based, human colon tumor, dose response (AID 1045); format: functional;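 note: HCT116 colon tumor cells with beta catenin knocked out; cells exposed to compound for 60 hours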
[9] = viability of uninfected HEp-2 cells – cell-based, HTS, cytotoxicity control for RSV inhibitor project, dose response (AID 2410); format: functional; conditions: human respiratory syncytial virus
[10] = viability of PTEN-deleted HCT116 cells – cell-based, HCT116 PTEN knockout, dose response (AID 1047); format: functional;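 note: HCT116 colon tumor cells with PTEN knocked out; cells exposed to compound for 60 hours before readout; potency for loss of cell viability measured by luminescence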
[11] = P. falciparum Dd2 growth inhibitors, dose response, SYBR Green, cherry-picked samples (AID 1159567); format: functional, cell-based

## COc1ccc(N/C=C(\C=C\C#N)S(=O)(=O)c2ccccc2)cc1
[1]
  EC50: > 260 µM (inactive)

## CC(=O)c1ccc(N2CCN(S(=O)(=O)c3ccc(-c4cnc(C5CC5)o4)cc3)CC2)cc1
[2]
  AC50: 20.8 µM (active)
Fatty acid synthase [3]
  IC50: 24.4 µM (inactive)
Fatty acid synthase [4]
  IC50: 11.6 µM (active)
[5]
  AC50: 38.7 µM (active)
[6]
  AC50: 5.95 µM (active)

## CCC(C(=O)Nc1cccc(S(=O)(=O)N(C)c2ccccc2)c1)c1ccccc1 (stereo not drawn)
Protein skinhead-1
  IC50: > 100 µM (inactive)

## CN(Cc1ccccc1)c1nc(N)c([N+](=O)[O-])c(NCc2ccccc2)n1
[1]
  EC50: > 260 µM (inactive)

## N#C/C(=C\c1cccc(NC(=O)c2ccccc2Cl)c1)C(=O)NCCc1ccccc1
Protein RecA
  EC50: 11.2 µM (active)
[7]
  AC50: 8.73 µM (active)
[8]
  EC50: 15.1 µM (active)
[9]
  CC50: 15.6 µM (active)
[10]
  EC50: 14.4 µM (active)

## CCOC(=O)c1c(C)n(-c2ccc(C)cc2)c2c(CC(C)=O)c(Br)c(OC)c(O)c12
[1]
  EC50: > 260 µM (inactive)

## COC(=O)c1cccc(CC2(C)C(=O)Nc3ccc(OC(F)(F)F)cc32)c1 (stereo not drawn)
Protein skinhead-1
  IC50: 88.5 µM (inactive)

## N#CC1(NC(=O)COC(=O)c2cc([N+](=O)[O-])ccc2N2CCCC2)CCCCC1
Fatty acid synthase [3]
  IC50: 7.64 µM (active)
Fatty acid synthase [4]
  IC50: 5.51 µM (active)

## COc1ccc(C(c2nnnn2-c2c(C)cccc2C)N2CCC(n3c(O)nc4ccccc43)CC2)cc1 (stereo not drawn)
Fatty acid synthase [3]
  IC50: 16.5 µM (active)
Fatty acid synthase [4]
  IC50: 16 µM (active)

## COC(=O)CCC(=O)COc1ccc(OC)cc1C#N
[1]
  EC50: 105 µM (active)

## CCCC(=O)N1CC2(C1)CN(Cc1ccccc1F)[C@H](CO)c1c2c2ccc(OC)cc2n1C
[11]
  AC50: 6.14 µM (active)

## O=C(c1ccc(Cl)c(S(=O)(=O)NCc2ccco2)c1)N1CCN(c2ccccc2F)CC1
[1]
  EC50: > 260 µM (inactive)

## Cc1cc(C(c2ccc(O)cc2)c2cc(C)c(O)cc2C)c(C)cc1O
Protein RecA
  EC50: 100 µM (active)
[7]
  AC50: 4.7 µM (active)
[9]
  CC50: 20 µM (active)

## COc1ccccc1/C=C/C(=O)c1cc(Br)ccc1OC(=O)c1ccco1
[1]
  EC50: 20.5 µM (active)

## CC(C(=O)N1CCN(C)CC1)N1C(=O)c2ccccc2C1=O (stereo not drawn)
Protein skinhead-1
  IC50: > 100 µM (inactive)

## C=CC[n+]1c(-c2ccc(OC)cc2)csc1NNC(=O)Nc1ccccc1
[1]
  EC50: > 260 µM (inactive)

From ChEMBL document CHEMBL1201862, “PubChem BioAssay data set” (2004)
